The record followed here is patent US12714721B2, “Methods of treatment of a cytokine storm” (Loma Linda University Health, priority 2020, dated 2026).

One assay deals with kidneys. In words: Vascular leakage permeability assay (Evans blue dye), kidney. The format is in vivo, mouse. The note with it: day 1 (FIG. 5A). The protocol:
(§1) Experimental Design for IGF-1 and BTP-2 studies—The animal experiments involved B6 mice between 5-8 weeks of age. Most experiments involved five groups of animals: (1) healthy, (2) LPS untreated (LPS-No Tx), (3) IGF-I in vivo gene therapy one day before LPS injection (LPS+IGF-1), (4) BTP-2 16 mg/kg i.p. at the start of the study and the (5) combined therapy with IGF-I and BTP-2 (LPS-IGF-1+BTP-2). For the survival experiment, a lethal dose of LPS (25 mg/kg) was used and all of the untreated animals died by 72 hours. In the other experiments, a sublethal dose of LPS (20 mg/kg) was used.
LPS induced sepsis and subsequent AKI—Female C57BL/6 mice received a sublethal or lethal dose of LPS from E. coli (0127: B8 strain, Sigma Aldrich, St. Louis, MO, USA) in a concentration of 20 or 25 mg/kg body weight administrated in sterile PBS by intraperitoneal injection. […]
Vascular leakage permeability assay—Evans blue dye (EBD) was dissolved in a 0.9% saline solution at a concentration of 5 mg/mL and injected to the mouse tail vein (50 mg/kg, i.v.). […] The absorbance of the supernatants was measured at 620 and 740 nm using a dual-wave ELISA plate reader.

A further assay relates to LPS-induced AKI mice. In words: Survival test with a lethal dose of LPS (25 mg/kg body weight). It counts as in vivo, mouse. The settings on record: LPS 25 mg/kg i.p.; for overall survival rate: end of the experiment (144 h) (FIG. 1D); for mortality: pretreatment (FIG. 1D). The protocol:
Different components of the treatment regimen were tested, individually and in combination, for their effect on prolonging survival or affecting mortality. A survival test was performed with a lethal dose of LPS (25 mg/kg body weight). As LPS causes AKI, a mouse model was utilized where AKI was induced by parenteral injection of LPS. Animals were treated with IGF-1 and Vitamin C, individually and in combination to evaluate their effect on survival (FIG. 1C). Kaplan Meier survival analysis was conducted between LPS induced systemic-sepsis animals treated with or without IGF-1, Vitamin C or combination therapy measured over the 96 hour-study period. […] No mortality was observed among healthy mice.
Different components of the treatment regimen were tested, individually and in combination, for their effect on prolonging survival or affecting mortality. A survival test was performed with a lethal dose of LPS (25 mg/kg body weight). Animals were treated with all components individually and in combination to evaluate their effect on survival. As LPS causes AKI, a mouse model was utilized where AKI was induced by parenteral injection of LPS. Pretreatment with IGF-1 monotherapy, BTP-2 monotherapy, and IGF-1+BTP-2 combination therapy was evaluated for effect in the mouse model to prevent the animals from succumbing to death due to organ failure in AKI. Mice (7 per groups) were i.p. injected with a lethal dose of LPS (25 mg/kg body weight). A group of mice received an i.p. injection of BTP-2 (16 mg/kg) one hour before LPS injection, and another group of mice received i.m. injection of Lenti-IGF1, 24 hours before LPS injection. A separate group of mice received a combination of IGF-1+BTP-2 as pretreatment. Mice were monitored every 6 hours. […] The mortality of LPS-injected mice that received an IGF-1 (labeled as LPS+IGF-1) pretreatment was 60% within 36 hours, and 88% at the end of the experiment (144 h). Mortality in LPS-injected mice that received BTP-2 (labeled as LPS+BTP-2) pretreatment was 0% within 36 hours, 30% within 48 hours and 72% at 144 hour-time point. However, the mortality in LPS-injected mice that received an IGF-1 and BTP-2 (labeled as LPS+IGF-1+BTP-2) pretreatment was comparatively low, which reached only 15% within 48 hours, and at the end of the 144 hour-time point reached only up to 43% (compared to LPS-No Tx). […] Meanwhile, no mortality was observed among mice treated with PBS, i.e., healthy group.
as §1
LPS induced sepsis and subsequent AKI—Female C57BL/6 mice received a sublethal or lethal dose of LPS from E. coli (0127: B8 strain, Sigma Aldrich, St. Louis, MO, USA) in a concentration of 20 or 25 mg/kg body weight administrated in sterile PBS by intraperitoneal injection.
Treatment—In a preventive therapeutic strategy, some of the mice received an intramuscular injection of Lenti-IGF-1 24 hours before LPS injection; whereas, the calcium signaling blocker BTP-2 (16 mg/kg, Cayman Chemical) was administrated 1 hour before LPS injection. Some of the animals received a combination of Lenti-IGF-1 and BTP-2. Control group mice were injected with an equal volume of PBS.

Assay [1] in a line: Serum IGF-I in LPS-treated mice after IGF-I in vivo gene therapy. Also on record: species or system mouse. The settings on record: LPS 20 mg/kg i.p., 7-day study, IGF-I gene therapy i.m. one day prior to LPS. The protocol: AKI inflammation was associated with a decrease in serum IGF-I. This deficiency was rescued by expression of IGF-1. An in vivo gene therapy approach was utilized. A lentiviral vector engineered to express IGF-I was injected into skeletal muscle of the mice. Constant IGF-I production was designed because IGF binding protein 3, which normally binds to and stabilizes IGF-1 in serum, is expected to decrease. This decrease is due to liver growth receptor depression and therefore the free IGF-I, being a small molecule, is excreted in the urine. By using in vivo gene therapy approach, the free IGF-I is available to the sites of injury in the kidney.
In this 7-day study, there was a marked drop in serum IGF-I from 337.5 to 85 ng/mL (p<0.001), as a consequence of LPS therapy (20 mg/kg body weight). […] Under normal conditions, IGF-I circulates bound to IGFBP3. However, under the conditions of LPS administration, IGFBP3 would be expected to be low. Consequently, IGF-1 produced by muscle should circulate as free IGF-I, which would be readily accessible through the remaining intact vasculature to the injured kidney.
Experimental Design for IGF-1 and BTP-2 studies—The animal experiments involved B6 mice between 5-8 weeks of age. […]

“Also recorded” adds a separate entry of the source.

What is called mortality is the percentage killed. Regarding `Cc1nnsc1C(=O)Nc1ccc(-n2nc(C(F)(F)F)cc2C(F)(F)F)cc1` [BTP-2, 3,5-bis(trifluoromethyl)pyrazole derivative], the “vascular leakage (extravasation of Evans blue dye)” value in the assay with kidneys is reported as “more so”. For the same compound, in the assay on LPS-induced AKI mice, the overall survival rate is recorded as 28%. Further, the results for the mortality in the assay on LPS-induced AKI mice (end of the experiment (144 h)), with LPS-induced AKI mice (within 36 hours) and in the assay on LPS-induced AKI mice (within 48 hours) were 72%, 0% and 30%, respectively.
“IGF-I: Insulin-like Growth Factor, delivered by a lentiviral vector engineered to express IGF-I injected into skeletal muscle”: the “serum IGF-I” value is reported as “normalized the low serum IGF-I; also recorded: rescued this deficiency” in assay [1] and “rescued the serum IGF-I deficiency” in assay [1] (listed as Lenti-IGF-I). Also, the “vascular leakage (extravasation of Evans blue dye)” value with kidneys is given as “improved”. Moreover, in the assay on LPS-induced AKI mice, the overall survival rate is 12.5%. Further, the mortality in the assay with LPS-induced AKI mice (end of the experiment (144 h)) is 88%; with LPS-induced AKI mice (within 36 hours), 60%.
